Source: the supplement of paper PMC11061612

Tests used:
[1] = system: CAL-62 (Thyroid Gland Carcinoma); test: Bliss excess, mean over the matrix (fraction); higher = more synergy
Outline: (§1)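 After 24 hours at 37°C and 5% CO2 in 1536-well plates, cells in DMEM/F12 or RPMI plus 10% FBS received two-drug dose matrices for 72 hours. Viability came from CellTiter-Glo 2.0 luminescence and was scaled as inhibition, anchored at 0 by vehicle wells and at 1 by blank wells. Combination Emax is taken as the second-highest inhibition in the matrix, and Bliss excess as the observed combination effect less EA + EB − EA·EB, with EA and EB the single-agent effects.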

[2] = system: COLO-680N (Esophageal Squamous Cell Carcinoma); test: as above
Outline: as §1

[3] = system: HSC-39 (Gastric Carcinoma); test: as above
Outline: as §1

IST-MES1 (Mesothelioma) [4] = test: as above
Outline: as §1

[5] = system: L-1236 (Hodgkin's Lymphoma); test: as above
Outline: as §1

[6] = system: LK-2 (Squamous Cell Lung Carcinoma); test: as above
Outline: as §1

[7] = system: MFE-280 (Endometrial Carcinoma); test: as above
Outline: as §1

[8] = system: MKN45 (Gastric Carcinoma); test: as above
Outline: as §1

NB12 (Neuroblastoma) = test: as above
Outline: as §1

[9] = system: NCI-H2342 (Lung Adenocarcinoma); test: as above
Outline: as §1

[10] = system: OPM-2 (Plasma Cell Myeloma); test: as above
Outline: as §1

[11] = system: OVMIU (Ovarian Carcinoma); test: as above
Outline: as §1

[12] = system: PANC-03-27 (Pancreatic Carcinoma); test: as above
Outline: as §1

[13] = system: PC-3_[JPC-3] (Lung Adenocarcinoma); test: as above
Outline: as §1

[14] = system: PSN1 (Pancreatic Carcinoma); test: as above
Outline: as §1

[15] = system: RCM-1 (Colorectal Carcinoma); test: as above
Outline: as §1

[16] = system: REH (B-Lymphoblastic Leukemia); test: as above
Outline: as §1

[17] = system: RKN (Other Solid Carcinomas); test: as above
Outline: as §1

SF539 (Glioblastoma) [18] = test: as above
Outline: as §1

[19] = system: SHP-77 (Small Cell Lung Carcinoma); test: as above
Outline: as §1

SK-MEL-2 (Melanoma) [20] = test: as above
Outline: as §1

[21] = system: SK-PN-DW (Other Solid Carcinomas); test: as above
Outline: as §1

[22] = system: TE-8 (Esophageal Squamous Cell Carcinoma); test: as above
Outline: as §1

[23] = system: VAL (B-Cell Non-Hodgkin's Lymphoma); test: as above
Outline: as §1

[24] = system: CAL-62 (Thyroid Gland Carcinoma); test: combination Emax (second highest fraction inhibited in the dose matrix, 72 h); higher = more inhibition; extreme values may be limits of the assay
Outline: as §1

[25] = system: COLO-680N (Esophageal Squamous Cell Carcinoma); test: as above
Outline: as §1

[26] = system: HSC-39 (Gastric Carcinoma); test: as above
Outline: as §1

IST-MES1 (Mesothelioma) [27] = test: as above
Outline: as §1

[28] = system: L-1236 (Hodgkin's Lymphoma); test: as above
Outline: as §1

[29] = system: LK-2 (Squamous Cell Lung Carcinoma); test: as above
Outline: as §1

[30] = system: MFE-280 (Endometrial Carcinoma); test: as above
Outline: as §1

[31] = system: MKN45 (Gastric Carcinoma); test: as above
Outline: as §1

[32] = system: NCI-H2342 (Lung Adenocarcinoma); test: as above
Outline: as §1

[33] = system: OPM-2 (Plasma Cell Myeloma); test: as above
Outline: as §1

[34] = system: OVMIU (Ovarian Carcinoma); test: as above
Outline: as §1

[35] = system: PANC-03-27 (Pancreatic Carcinoma); test: as above
Outline: as §1

[36] = system: PC-3_[JPC-3] (Lung Adenocarcinoma); test: as above
Outline: as §1

[37] = system: PSN1 (Pancreatic Carcinoma); test: as above
Outline: as §1

[38] = system: RCM-1 (Colorectal Carcinoma); test: as above
Outline: as §1

[39] = system: REH (B-Lymphoblastic Leukemia); test: as above
Outline: as §1

[40] = system: RKN (Other Solid Carcinomas); test: as above
Outline: as §1

SF539 (Glioblastoma) [41] = test: as above
Outline: as §1

[42] = system: SHP-77 (Small Cell Lung Carcinoma); test: as above
Outline: as §1

SK-MEL-2 (Melanoma) [43] = test: as above
Outline: as §1

[44] = system: SK-PN-DW (Other Solid Carcinomas); test: as above
Outline: as §1

[45] = system: TE-8 (Esophageal Squamous Cell Carcinoma); test: as above
Outline: as §1

[46] = system: VAL (B-Cell Non-Hodgkin's Lymphoma); test: as above
Outline: as §1
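For Bliss excess, mean over the matrix in this document: after 72 h of two-drug dosing.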

SMILES: C[C@@H]1COCCN1c1cc(C2([S@](C)(=N)=O)CC2)nc(-c2ccnc3[nH]ccc23)n1 [AZD6738] + C1CC(C1)(C(=O)[O-])C(=O)[O-].N.N.[Pt+2] [Carboplatin] (first compound max 10 µM, 7x7, partner max 10 µM)
- Bliss excess [1]: -0.0402
- Bliss excess [2]: -0.0073
- Bliss excess [3]: -0.0265
- Bliss excess (IST-MES1 (Mesothelioma) [4]): -0.0502
- Bliss excess [5]: -0.0366
- Bliss excess [6]: -0.04
- Bliss excess [7]: -0.0617
- Bliss excess [8]: -0.104
- Bliss excess (NB12 (Neuroblastoma)): -0.0444
- Bliss excess [9]: -0.0422
- Bliss excess [10]: -0.051
- Bliss excess [11]: -0.0369
- Bliss excess [12]: -0.0554
- Bliss excess [13]: -0.0326
- Bliss excess [14]: -0.0278
- Bliss excess [15]: -0.0443
- Bliss excess [16]: 0.0175
- Bliss excess [17]: -0.0615
- Bliss excess (SF539 (Glioblastoma) [18]): -0.0835
- Bliss excess [19]: 0.0138
- Bliss excess (SK-MEL-2 (Melanoma) [20]): -0.005
- Bliss excess [21]: -0.0517
- Bliss excess [22]: -0.0806
- Bliss excess [23]: -0.0465
- combination Emax [24]: 0.684
- combination Emax [25]: 0.287
- combination Emax [26]: 1
- combination Emax (IST-MES1 (Mesothelioma) [27]): 0.461
- combination Emax [28]: 0.807
- combination Emax [29]: 0.406
- combination Emax [30]: 0.302
- combination Emax [31]: 0.708
- combination Emax [32]: 0.492
- combination Emax [33]: 0.828
- combination Emax [34]: 0.547
- combination Emax [35]: 0.652
- combination Emax [36]: 0.294
- combination Emax [37]: 0.435
- combination Emax [38]: 0.638
- combination Emax [39]: 0.629
- combination Emax [40]: 0.286
- combination Emax (SF539 (Glioblastoma) [41]): 0.875
- combination Emax [42]: 0.506
- combination Emax (SK-MEL-2 (Melanoma) [43]): 0.201
- combination Emax [44]: 0.903
- combination Emax [45]: 0.522
- combination Emax [46]: 0.7
